Assay results taken from US10874743B2, “IRAK degraders and uses thereof” (Kymera Therapeutics, Inc., priority 2017, dated 2020).
“And” between values parts separate entries of the source, which are not always exact repeats. Identical values can stand only once. Like-named read-outs stand apart in the source and are kept apart here.

Test: Pharmacokinetics in CD-1 mice (plasma concentrations, PK parameters)
Format: in vivo
Conditions: for AUC(0-t): read-out: AUC0-last; for MRT inf: read-out: MRT0-inf; for MRT last: read-out: MRT0-last; for Vd: read-out: Vdss
Experimental: Pharmacokinetics for I-127, I-172 and I-210 were determined in Sprague Dawley rats or CD-1 mice by dosing intravenous (IV), subcutaneous (SC) or per oral (PO) using facility SOPs and sampling plasma at required time points. Species, formulation, route of administration and time points samples are listed below for each compound.
Compounds were extracted from plasma, injected on reverse phase HPLC, eluted with a gradient from 5% to 95% acetonitrile in water and quantified by mass spectrometry with internal standard. Data are expressed in ng compound per mL of plasma.

[1] = CD-1, mouse, plasma, iv, 2 mg/kg, mouse (CD1) iv 2 mg/kg, Mean IV
[2] = CD-1, mouse, plasma, sc, 30 mg/kg, mouse (CD1) sc 30 mg/kg, Mean SC
[3] = CD-1, mouse, plasma, sc, 30 mg/kg, mouse (CD1) sc 30 mg/kg, individual M07-M09
[4] = mouse (CD1) iv 2 mg/kg, Mean IV
[5] = mouse (CD1) iv 2 mg/kg, individual M01-M03, 2 mg/kg
[6] = mouse (CD1) sc 30 mg/kg, individual M07-M09
[7] = mouse (CD1) sc 30 mg/kg, individual M07-M09, 30 mg/kg

Q: With `NC(=O)c1nn(-c2ccc(C(=O)NCCOCCOCCNc3cccc4c3C(=O)N(C3CCC(=O)NC3=O)C4=O)cc2)cc1NC(=O)c1coc(-c2ccnc(NCC(F)(F)F)c2)n1` (stereo not shown) [I-127, N-[3-carbamoyl-1-[4-[2-[2-[2-[[2-(2,6-dioxo-3-piperidyl)-1,3-dioxo-isoindolin-4-yl]amino]ethoxy]ethoxy]ethylcarbamoyl]phenyl]pyrazol-4-yl]-2-[2-(2,2,2-trifluoroethylamino)-4-pyridyl]oxazole-4-carboxamide] as the compound, how does the concentration at 5 min (CD-1, mouse, plasma, iv, 2 mg/kg, mouse (CD1) iv 2 mg/kg, 5 min, Mean IV, read-out: concentrations) read?
A: 1290 ng/mL

Q: And the concentration at 0.5 h (CD-1, mouse, plasma, iv, 2 mg/kg, mouse (CD1) iv 2 mg/kg, 0.500 h, Mean IV, read-out: concentrations)?
A: 102 ng/mL

Q: And the concentration at 1 h (CD-1, mouse, plasma, iv, 2 mg/kg, mouse (CD1) iv 2 mg/kg, 1.00 h, Mean IV, read-out: concentrations)?
A: 49.7 ng/mL

Q: What about the concentration at 2 h (CD-1, mouse, plasma, iv, 2 mg/kg, mouse (CD1) iv 2 mg/kg, 2.00 h, Mean IV, read-out: concentrations) of the same compound?
A: 31.7 ng/mL

Q: What about the concentration at 4 h (CD-1, mouse, plasma, iv, 2 mg/kg, mouse (CD1) iv 2 mg/kg, 4.00 h, Mean IV, read-out: concentrations) of the same compound?
A: 12.2 ng/mL

Q: What about the concentration at 6 h (CD-1, mouse, plasma, iv, 2 mg/kg, mouse (CD1) iv 2 mg/kg, 6.00 h, Mean IV, read-out: concentrations) of the same compound?
A: 5.31 ng/mL

Q: And the concentration at 24 h (CD-1, mouse, plasma, iv, 2 mg/kg, mouse (CD1) iv 2 mg/kg, 24.0 h, individual M01-M03, read-out: concentrations)?
A: 2.2 ng/mL

Q: What about the clearance [1] of the same compound?
A: 84.9 mL/min/kg

Q: What about the half-life [1] of the same compound?
A: 3.65 h

Q: And the AUC(0-inf) (CD-1, mouse, plasma, iv, 2 mg/kg, mouse (CD1) iv 2 mg/kg, Mean IV, read-out: AUC0-inf)?
A: 511 ng·h/mL

Q: And the AUC(0-t) [1]?
A: 496 ng·h/mL

Q: What about the C0 (CD-1, mouse, plasma, iv, 2 mg/kg, mouse (CD1) iv 2 mg/kg, Mean IV, read-out: C0) of the same compound?
A: 2160 ng/mL

Q: And the MRT inf [1]?
A: 1.54 h

Q: What about the MRT last [1] of the same compound?
A: 1.1 h

Q: And the Vd [1]?
A: 6.25 L/kg

Q: And the Vd (CD-1, mouse, plasma, iv, 2 mg/kg, mouse (CD1) iv 2 mg/kg, individual M01-M03)?
A: 5.73 L/kg

Q: What about the AUC(0-t) [2] of the same compound?
A: 39.8 ng·h/mL

Q: And the Cmax (CD-1, mouse, plasma, sc, 30 mg/kg, mouse (CD1) sc 30 mg/kg, Mean SC, read-out: Cmax)?
A: 2.91 ng/mL

Q: And the MRT last [2]?
A: 11.3 h

Q: And the Tmax (CD-1, mouse, plasma, sc, 30 mg/kg, mouse (CD1) sc 30 mg/kg, Mean SC, read-out: Tmax)?
A: 2.67 h

Q: What about the half-life [3] of the same compound?
A: 39.2 h

Q: And the AUC(0-inf) (CD-1, mouse, plasma, sc, 30 mg/kg, mouse (CD1) sc 30 mg/kg, individual M07-M09, read-out: AUC0-inf)?
A: 144 ng·h/mL

Q: What about the AUC(0-t) [3] of the same compound?
A: 33 ng·h/mL

Q: And the MRT inf [3]?
A: 54.2 h

Q: And the MRT last [3]?
A: 11.7 h

Q: What about the Tmax (CD-1, mouse, plasma, sc, 30 mg/kg, mouse (CD1) sc 30 mg/kg, individual M07-M09, read-out: Tmax) of the same compound?
A: 2 h

Q: And the bioavailability (CD-1, plasma, mouse (CD1) sc 30 mg/kg, Mean SC)?
A: 0.534%

Q: And the concentrations (mouse (CD1) iv 2 mg/kg, 5 min, individual M01-M03, 2 mg/kg)?
A: 2310 ng/mL and 831 ng/mL and 738 ng/mL

Q: And the concentrations (mouse (CD1) iv 2 mg/kg, 0.500 h, individual M01-M03, 2 mg/kg)?
A: 166 ng/mL and 58.7 ng/mL and 82.1 ng/mL

Q: What about the concentrations (mouse (CD1) iv 2 mg/kg, 1.00 h, individual M01-M03, 2 mg/kg) of the same compound?
A: 91 ng/mL and 22.3 ng/mL and 35.8 ng/mL

Q: What about the concentrations (mouse (CD1) iv 2 mg/kg, 2.00 h, individual M01-M03, 2 mg/kg) of the same compound?
A: 51.5 ng/mL and 12.7 ng/mL and 30.9 ng/mL

Q: What about the concentrations (mouse (CD1) iv 2 mg/kg, 4.00 h, individual M01-M03, 2 mg/kg) of the same compound?
A: 18.6 ng/mL and 7.08 ng/mL and 10.9 ng/mL

Q: What about the concentrations (mouse (CD1) iv 2 mg/kg, 6.00 h, individual M01-M03, 2 mg/kg) of the same compound?
A: 8.13 ng/mL and 3.38 ng/mL and 4.42 ng/mL

Q: What about the concentrations (mouse (CD1) iv 2 mg/kg, 24.0 h, individual M01-M03, 2 mg/kg) of the same compound?
A: BQL

Q: And the AUCExtra [4]?
A: 2.97%

Q: What about the AUMCExtra [4] of the same compound?
A: 29.9%

Q: What about the AUC0-last [5] of the same compound?
A: 896 ng·h/mL and 278 ng·h/mL and 316 ng·h/mL

Q: And the AUC(0-inf) [5]?
A: 919 ng·h/mL and 288 ng·h/mL and 325 ng·h/mL

Q: What about the AUCExtra [5] of the same compound?
A: 2.57% and 3.55% and 2.80%

Q: And the AUMCExtra [5]?
A: 33.8% and 34.9% and 20.8%

Q: And the C0 [5]?
A: 3910 ng/mL and 1412 ng/mL and 1145 ng/mL

Q: And the Cl [5]?
A: 36.3 mL/min/kg and 116 mL/min/kg and 103 mL/min/kg

Q: What about the MRT0-inf [5] of the same compound?
A: 2.63 h and 0.916 h and 1.08 h

Q: What about the MRT0-last [5] of the same compound?
A: 1.79 h and 0.618 h and 0.882 h

Q: What about the T1/2 [5] of the same compound?
A: 7.43 h and 2.09 h and 1.43 h

Q: And the Tlast [5]?
A: 24.0 h and 6.00 h (2×)

Q: What about the Vdss [5] of the same compound?
A: 6.36 L/kg and 6.67 L/kg

Q: And the concentrations (mouse (CD1) po 30 mg/kg, 0.500 h, individual M04-M06)?
A: BQL

Q: And the concentrations (mouse (CD1) po 30 mg/kg, 1.00 h, individual M04-M06)?
A: BQL

Q: What about the concentrations (mouse (CD1) po 30 mg/kg, 2.00 h, individual M04-M06) of the same compound?
A: BQL

Q: What about the concentrations (mouse (CD1) po 30 mg/kg, 4.00 h, individual M04-M06) of the same compound?
A: BQL

Q: What about the concentrations (mouse (CD1) po 30 mg/kg, 6.00 h, individual M04-M06) of the same compound?
A: BQL

Q: And the concentrations (mouse (CD1) po 30 mg/kg, 24.0 h, individual M04-M06)?
A: BQL

Q: And the concentrations (mouse (CD1) sc 30 mg/kg, 0.500 h, Mean SC)?
A: 1.81 ng/mL

Q: And the concentrations (mouse (CD1) sc 30 mg/kg, 0.500 h, individual M07-M09, 30 mg/kg)?
A: 1.29 ng/mL and 2.28 ng/mL and 1.85 ng/mL

Q: And the concentrations (mouse (CD1) sc 30 mg/kg, 1.00 h, Mean SC)?
A: 2 ng/mL

Q: What about the concentrations (mouse (CD1) sc 30 mg/kg, 1.00 h, individual M07-M09, 30 mg/kg) of the same compound?
A: 1.87 ng/mL and 2.51 ng/mL and 1.61 ng/mL

Q: And the concentrations (mouse (CD1) sc 30 mg/kg, 2.00 h, Mean SC)?
A: 2.88 ng/mL

Q: What about the concentrations (mouse (CD1) sc 30 mg/kg, 2.00 h, individual M07-M09, 30 mg/kg) of the same compound?
A: 2.21 ng/mL and 4.61 ng/mL and 1.82 ng/mL

Q: What about the concentrations (mouse (CD1) sc 30 mg/kg, 4.00 h, Mean SC) of the same compound?
A: 1.59 ng/mL

Q: And the concentrations (mouse (CD1) sc 30 mg/kg, 4.00 h, individual M07-M09, 30 mg/kg)?
A: 1.01 ng/mL and 1.86 ng/mL and 1.9 ng/mL

Q: And the concentrations (mouse (CD1) sc 30 mg/kg, 6.00 h, Mean SC)?
A: 1.8 ng/mL

Q: And the concentrations (mouse (CD1) sc 30 mg/kg, 6.00 h, individual M07-M09, 30 mg/kg)?
A: 1.41 ng/mL and 2.82 ng/mL and 1.18 ng/mL

Q: And the concentrations (mouse (CD1) sc 30 mg/kg, 24.0 h, Mean SC)?
A: 1.38 ng/mL

Q: What about the concentrations (mouse (CD1) sc 30 mg/kg, 24.0 h, individual M07-M09, 30 mg/kg) of the same compound?
A: 1.3 ng/mL and 1.58 ng/mL and 1.26 ng/mL

Q: And the Tlast (mouse (CD1) sc 30 mg/kg, Mean SC)?
A: 24.0 h

Q: What about the AUCExtra [6] of the same compound?
A: 62.1%

Q: What about the AUMCExtra [6] of the same compound?
A: 92.4%

Q: And the Tlast [6]?
A: 24.0 h

Q: What about the AUC0-last [7] of the same compound?
A: 54.5 ng·h/mL and 31.7 ng·h/mL

Q: And the Cmax [7]?
A: 2.21 ng/mL and 4.61 ng/mL and 1.90 ng/mL

Q: And the MRT0-last [7]?
A: 10.9 h and 11.4 h

Q: And the Tmax [7]?
A: 4.00 h
